Test results taken from patent US10865216B2, “Tricyclic Gyrase inhibitors” (MERCK SHARP & DOHME CORP., priority 2012, dated 2020).
In brackets after ≈: the same amount, converted by molar mass. Like-named read-outs stand apart in the source and are kept apart here.

Tests used:
[1] = tested on: S. aureus ATCC 13709; test: MIC, S. aureus ATCC 13709; assay type: cell-based; details: for MIC: Staphylococcus aureus
[2] = tested on: E. coli ATCC 25922; test: MIC, E. coli ATCC 25922; assay type: cell-based; details: for MIC: Escherichia coli
[3] = S. aureus, Alamar Blue read after overnight incubation at 35° C.
[4] = E. coli, Alamar Blue read after overnight incubation at 35° C.
[5] = ATCC13709, S. aureus, Alamar Blue read after overnight incubation at 35° C., read-out: MIC Sa
[6] = ATCC25922, E. coli, Alamar Blue read after overnight incubation at 35° C., read-out: MIC Ec

Compound | MIC Sa [1, 3] [µg/mL] | MIC Ec [2, 4] [µg/mL] | further results
CNc1cccc2c1[nH]c1nc(Sc3cnc4cccnc4c3)nc(N3CC4C(N)C4C3)c12 (centres unmarked) [Compound 1.24] | ≤0.5 | 1 (≈ 2.2 µM) | 
COc1cccc2c1[nH]c1nc(Oc3cccc(C#N)c3)nc(N3CC4C(N)C4C3)c12 (centres unmarked) [Compound 2.12] | 16 (≈ 38.8 µM) | >64 | 
CNc1cc(F)cc2c1[nH]c1nc(Cc3cnc(C)nc3)nc(N3CC[C@@]4(C[C@H]4N)C3)c12 |  |  | SA MIC ([1]; Table 11, compounds wherein L = CH2): ≤ 0.5 µg/mL; EC8 MIC ([2]; Table 11, L = CH2, EC8 not defined): 2 µg/mL
CNc1cccc2c1[nH]c1nc(Oc3cncc(C#N)c3)cc(N3CCC4(CC4N)C3)c12 (centres unmarked) [Compound 3.40] |  |  | MIC [1, 5]: ≤ 0.5 µg/mL; MIC [2, 6]: 1 µg/mL (≈ 2.35 µM)
NC1CCN(c2nc(Sc3cnc4nccnc4c3)nc3[nH]c4ccccc4c23)C1 (centres unmarked) [Compound 1.06] | 32 (≈ 77.2 µM) | >64 | 
CNc1cc(F)cc2c1[nH]c1nc(Sc3cnc4cccnc4c3)nc(N3CC(N)C4(CC4)C3)c12 (centres unmarked) [Compound 1.62] |  |  | MIC [1, 5]: ≤ 0.5 µg/mL; MIC [2, 6]: ≤ 0.5 µg/mL
CNc1cc(F)cc2c1[nH]c1nc(Oc3cnc(C(C)(C)O)nc3)nc(N3CC4(CC[C@H]4N)C3)c12 [Compound 4.431] |  |  | MIC [1, 5]: ≤ 0.5 µg/mL; MIC [2, 6]: ≤ 0.5 µg/mL
CNc1cccc2c1[nH]c1nc(Sc3cnc4ccc[n+]([O-])c4c3)nc(N3CC[C@@H](C)[C@@H](N)C3)c12 [Compound 1.35] |  |  | MIC [1, 5]: ≤ 0.5 µg/mL; MIC [2, 6]: 2 µg/mL (≈ 4.11 µM)
CNc1cccc2c1[nH]c1nc(Oc3cncnc3)cc(N3CCN(CCN4CCOCC4)CC3)c12 [Compound 3.60] |  |  | MIC [1, 5]: 8 µg/mL (≈ 16.4 µM); MIC [2, 6]: > 64 µg/mL
CNc1nccc2c1[nH]c1nc(Sc3cnc4nccnc4c3)nc(N3CC[C@@H](N)C3)c12 [Compound 7.01] |  |  | MIC [1, 5]: 8 µg/mL (≈ 18 µM); MIC [2, 6]: > 64 µg/mL
CNc1cc(F)cc2c1[nH]c1nc(Oc3cnc(C)nc3)nc(N3CC(N)C4(CC4)C3)c12 (centres unmarked) [Compound 4.068] | ≤0.5 | ≤0.5 | 
CNc1cc(F)c(F)c2c1[nH]c1nc(Oc3cnc(C)nc3)nc(N3CCOCC3)c12 [Compound 10.107] |  |  | MIC Sa ([1]; Table 18, Sa): ≤ 0.5 µg/mL; MIC Ec ([2]; Table 18, Ec): ≤ 0.5 µg/mL
CNc1cc(F)cc2c1[nH]c1nc(Oc3cnc4cccnc4c3)nc(N3CC4C(N)C4C3)c12 (centres unmarked) [Compound 4.037] | ≤0.5 | ≤0.5 | 
N[C@@H]1CCN(c2nc(Sc3cnc4ccc[n+]([O-])c4c3)nc3[nH]c4c(Cl)cccc4c23)C1 [Compound 1.04] | 32 (≈ 69 µM) | 64 (≈ 138 µM) | 
CNc1cc(F)cc2c1[nH]c1nc(Oc3cnc(C)nc3)nc(NCCN)c12 |  |  | MIC ([1]; ATCC13709, Table 16, new R4 substituents, read-out: SA MIC): 4 µg/mL (≈ 10.5 µM); MIC ([2]; ATCC25922, Table 16, new R4 substituents, EC8 not defined, read-out: EC8 MIC): 16 µg/mL (≈ 41.8 µM)
CNc1cccc2c1[nH]c1nc(Oc3cncnc3)cc(-c3cn[nH]c3)c12 [Compound 3.9] |  |  | MIC [1, 5]: 2 µg/mL (≈ 5.6 µM); MIC [2, 6]: 32 µg/mL (≈ 89.5 µM)
CNc1cc(F)cc2c1[nH]c1nc(Oc3ccc4cncnc4c3)nc(N3C[C@H]4C[C@@H]3C[C@H]4N)c12 [Compound 10.96] |  |  | MIC Sa ([1]; Table 18, Sa): ≤ 0.5 µg/mL; MIC Ec ([2]; Table 18, Ec): ≤ 0.5 µg/mL
CNc1cccc2c1[nH]c1nc(Oc3cnc(N4CCOCC4)nc3)cc(N3CC4C(N)C4C3)c12 (centres unmarked) [Compound 3.26] |  |  | MIC [1, 5]: > 16 µg/mL; MIC [2, 6]: > 16 µg/mL
CNc1cc(F)c(F)c2c1[nH]c1nc(Oc3cnc4ccnn4c3)nc(N3C[C@H]4C[C@@H](N)[C@H]4C3)c12 [Compound 10.28] |  |  | MIC Sa ([1]; Table 18, Sa): ≤ 0.5 µg/mL; MIC Ec ([2]; Table 18, Ec): ≤ 0.5 µg/mL

Continued, in another order:

MIC Sa [1, 3] [µg/mL] | MIC Ec [2, 4] [µg/mL] | Compound | further results
≤0.5 | ≤0.5 | CNc1cc(F)cc2c1[nH]c1nc(Oc3cnc(N4CCOCC4)nc3)nc(N3CC[C@@H](N)C3)c12 [Compound 4.212] | 
≤0.5 | 8 (≈ 19 µM) | CNc1cc(F)cc2c1[nH]c1nc(Oc3cnc(N)nc3)nc(N3CC4CNC4C3)c12 (centres unmarked) [Compound 4.178] | 
≤0.5 | ≤0.5 | CNc1cc(F)cc2c1[nH]c1nc(Oc3cnc(C4CC4)nc3)nc(N3CC4C(N)C4C3)c12 (centres unmarked) [Compound 4.241] | 
≤0.5 | 1 (≈ 2.44 µM) | CNc1cc(F)cc2c1[nH]c1nc(Oc3cnc(N)nc3)nc(N3CCC(N)C3)c12 (centres unmarked) [Compound 4.179] | 
≤0.5 | ≤0.5 | CNc1cc(F)c(F)c2c1[nH]c1nc(Oc3ncc(C)cn3)nc(N3CC(N)C3)c12 [Compound 5.06] | 
≤0.5 | 4 (≈ 8.63 µM) | CNc1cc(F)cc2c1[nH]c1nc(Oc3cnc(C(N)=O)nc3)nc(N3C[C@H](N)C4(CC4)C3)c12 [Compound 4.375] | 
≤0.5 | 4 (≈ 9.21 µM) | CNc1cc(F)cc2c1[nH]c1nc(Oc3cnc(C)nc3)nc(N3CC4CC(N)C3C4)c12 (centres unmarked) [Compound 4.148] | 
≤0.5 | 1 (≈ 2.3 µM) | CNc1cc(F)cc2c1[nH]c1nc(Oc3cnc(C)nc3)nc(N3CC4CC4(CN)C3)c12 (centres unmarked) [Compound 4.098] | 
≤0.5 | ≤0.5 | CNc1cc(F)cc2c1[nH]c1nc(Oc3cnc(C)nc3)nc(-c3ccc(Cl)cc3N)c12 [Compound 4.161] | 
